Experimental data reported in PubChem BioAssay AID2060892 (Molecular Pharmacology Branch, DTP, NCI, 2025).

Test system: HOP-62 complex spheroids with HUVEC/MSC, viability
Test: Anticancer human tumor HOP-62 cell line growth inhibition [RAS];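 further: spheroids exposed to agents for seven days before readout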;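 on viability, T/C: 100% = DMSO vehicle control viability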
Conditions: for IC50: curve of first compound; for viability, T/C: stronger effect = lower value; active means viability on the fitted dose curve at most 10% of control; inactive means the rest
Procedure, shortened: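 Multi-cell-type spheroids: tumor cells plus HUVEC endothelial cells and mesenchymal stem cells. RAS-pathway inhibitors were combined with targeted agents, each dosed in half-log steps down from clinical Cmax, or from 10 microM when Cmax was unknown.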

[1] = second compound 0.0316 µM, first compound 0.0316 µM
[2] = second compound 0.0316 µM, first compound 0.1 µM
[3] = second compound 0.0316 µM, first compound 0.316 µM
[4] = second compound 0.0316 µM, first compound 1 µM
[5] = second compound 0.1 µM, first compound 0.0316 µM
[6] = second compound 0.1 µM, first compound 0.1 µM
[7] = second compound 0.1 µM, first compound 0.316 µM
[8] = second compound 0.1 µM, first compound 1 µM
[9] = second compound 0.316 µM, first compound 0.0316 µM
[10] = second compound 0.316 µM, first compound 0.1 µM
[11] = second compound 0.316 µM, first compound 0.316 µM
[12] = second compound 0.316 µM, first compound 1 µM
[13] = second compound 1 µM, first compound 0.0316 µM
[14] = second compound 1 µM, first compound 0.1 µM
[15] = second compound 1 µM, first compound 0.316 µM
[16] = second compound 1 µM, first compound 1 µM
[17] = second compound 3.16 µM, first compound 0.0316 µM
[18] = second compound 3.16 µM, first compound 0.1 µM
[19] = second compound 3.16 µM, first compound 0.316 µM
[20] = second compound 3.16 µM, first compound 1 µM
[21] = second compound 10 µM, first compound 0.0316 µM
[22] = second compound 10 µM, first compound 0.1 µM
[23] = second compound 10 µM, first compound 0.316 µM
[24] = second compound 10 µM, first compound 1 µM

C=CC(=O)N1CCN(c2nc(OCC3CCCN3C)nc3c(F)c(-c4nc(N)cc(C)c4C(F)(F)F)c(Cl)cc23)C(C)C1 (centres undefined) + C#Cc1c(F)ccc2cc(O)cc(-c3ncc4c(N5CC6CCC(C5)N6)nc(OCC56CCCN5CC(F)C6)nc4c3F)c12
> 1000 nM: IC50 (second compound 0.0316 µM) | IC50 (second compound 0.1 µM) | IC50 (second compound 0.316 µM) | IC50 (second compound 1 µM) | IC50 (second compound 3.16 µM)
inactive: viability, T/C (second compound 0.0316 µM, first compound 0.00316 µM) 79.5% | viability, T/C (second compound 0.0316 µM, first compound 0.01 µM) 71.2% | viability, T/C [1] 65.5% | viability, T/C [2] 68.2% | viability, T/C [3] 70.6% | viability, T/C [4] 62.1% | viability, T/C (second compound 0.1 µM, first compound 0.00316 µM) 86.7% | viability, T/C (second compound 0.1 µM, first compound 0.01 µM) 69.3% | viability, T/C [5] 63.2% | viability, T/C [6] 64.7% | viability, T/C [7] 69.1% | viability, T/C [8] 63% | viability, T/C (second compound 0.316 µM, first compound 0.00316 µM) 81.7% | viability, T/C (second compound 0.316 µM, first compound 0.01 µM) 68.9% | viability, T/C [9] 62.9% | viability, T/C [10] 58.5% | viability, T/C [11] 61.1% | viability, T/C [12] 61.8% | viability, T/C (second compound 1 µM, first compound 0.00316 µM) 90% | viability, T/C (second compound 1 µM, first compound 0.01 µM) 73.5% | viability, T/C [13] 63.1% | viability, T/C [14] 57.9% | viability, T/C [15] 59.2% | viability, T/C [16] 58.4% | viability, T/C (second compound 3.16 µM, first compound 0.00316 µM) 72.7% | viability, T/C (second compound 3.16 µM, first compound 0.01 µM) 70.1% | viability, T/C [17] 57.4% | viability, T/C [18] 61.1% | viability, T/C [19] 53.9% | viability, T/C [20] 50% | viability, T/C (second compound 10 µM, first compound 0.00316 µM) 48% | viability, T/C (second compound 10 µM, first compound 0.01 µM) 49.5% | viability, T/C [21] 43.4% | viability, T/C [22] 48.4% | viability, T/C [23] 43.7% | viability, T/C [24] 37%
< 3.16 nM: IC50 (second compound 10 µM)

CC(=O)OC12COC1CC(O)C1(C)C(=O)C(O)C3=C(C)C(OC(=O)C(O)C(NC(=O)OC(C)(C)C)c4ccccc4)CC(O)(C(OC(=O)c4ccccc4)C21)C3(C)C (centres undefined) + C#Cc1c(F)ccc2cc(O)cc(-c3ncc4c(N5CC6CCC(C5)N6)nc(OCC56CCCN5CC(F)C6)nc4c3F)c12
inactive: viability, T/C [1] 11.7% | viability, T/C [2] 13.2% | viability, T/C [3] 14.1% | viability, T/C [4] 19.5% | viability, T/C (second compound 0.0316 µM, first compound 3.16 µM) 19.5% | viability, T/C (second compound 0.0316 µM, first compound 10 µM) 26.5% | viability, T/C [5] 14.5% | viability, T/C [6] 13.9% | viability, T/C [7] 17.6% | viability, T/C [8] 17.7% | viability, T/C (second compound 0.1 µM, first compound 3.16 µM) 18.7% | viability, T/C (second compound 0.1 µM, first compound 10 µM) 27.1% | viability, T/C [9] 12% | viability, T/C [10] 12.8% | viability, T/C [11] 16.6% | viability, T/C [12] 13.6% | viability, T/C (second compound 0.316 µM, first compound 3.16 µM) 18.4% | viability, T/C (second compound 0.316 µM, first compound 10 µM) 23.5% | viability, T/C [13] 14.7% | viability, T/C [14] 10.3% | viability, T/C [15] 13.1% | viability, T/C [16] 11.6% | viability, T/C (second compound 1 µM, first compound 3.16 µM) 17.1% | viability, T/C (second compound 1 µM, first compound 10 µM) 15.2% | viability, T/C [17] 9.36% | viability, T/C [18] 13.4% | viability, T/C [19] 13.2% | viability, T/C [20] 14% | viability, T/C (second compound 3.16 µM, first compound 3.16 µM) 17.8% | viability, T/C (second compound 3.16 µM, first compound 10 µM) 17.2% | viability, T/C [21] 13.1% | viability, T/C [22] 12% | viability, T/C [23] 13.8% | viability, T/C [24] 13.7% | viability, T/C (second compound 10 µM, first compound 3.16 µM) 14.8% | viability, T/C (second compound 10 µM, first compound 10 µM) 21.3%
< 31.6 nM: IC50 (second compound 0.0316 µM) | IC50 (second compound 0.1 µM) | IC50 (second compound 0.316 µM) | IC50 (second compound 1 µM) | IC50 (second compound 3.16 µM) | IC50 (second compound 10 µM)
